“Also recorded” adds a separate entry of the source. The source made the active and inactive calls. How the calls were made is not given here.
Tested on: CCRIS mutagenicity, Ames/micronucleus/aberration tests
Test: CCRIS mutagenicity studies

`O=C(c1ccccc1)C(O)c1ccccc1` (stereo unspecified) was tested, and the mutagenic call (End Point: IN VITRO CHROMOSOMAL ABERRATIONS, Test System: CHL/IU CELLS, Metabolic Activation: RAT, LIVER, S-9, PHENOBARBITAL AND 5,6-BENZOFLAVONE) was “active; positive (structural changes)”, the mutagenic call (End Point: IN VITRO CHROMOSOMAL ABERRATIONS, Test System: CHO CELLS, Metabolic Activation: NONE) was “active; positive; weak response; precipitation occurred at 500 ug/ml; also recorded: inactive; negative; precipitation occurred at 500 ug/ml” and the mutagenic call (End Point: IN VITRO MICRONUCLEUS, Test System: CHL/IU CELLS, Metabolic Activation: RAT, LIVER, S-9, PHENOBARBITAL AND 5,6-BENZOFLAVONE) was “active; positive”. For the same compound, the mutagenic call (End Point: IN VIVO MICRONUCLEUS, Test System: BLOOD ERYTHROCYTES, Species: MOUSE, Strain/Sex: CD-1/MALE, Route: ORAL) was “inactive; negative”, the mutagenic call (Test System: AMES SALMONELLA TYPHIMURIUM, Strain/Indicator: TA97, Metabolic Activation: HAMSTER LIVER S-9, AROCLOR 1254 (10%), Method: PREINCUBATION) was “inactive; negative” and the mutagenic call (Test System: AMES SALMONELLA TYPHIMURIUM, Strain/Indicator: TA97, Metabolic Activation: NONE, Method: PREINCUBATION) was “inactive; negative”. The mutagenic call (Test System: AMES SALMONELLA TYPHIMURIUM, Strain/Indicator: TA97, Metabolic Activation: NONE, Method: STANDARD PLATE) was “inactive; negative”, the mutagenic call (Test System: AMES SALMONELLA TYPHIMURIUM, Strain/Indicator: TA97, Metabolic Activation: RAT LIVER S-9, AROCLOR 1254 (10%), Method: PREINCUBATION) was “inactive; negative” and the mutagenic call (Test System: AMES SALMONELLA TYPHIMURIUM, Strain/Indicator: TA97, Metabolic Activation: S-9, Method: STANDARD PLATE) was “inactive; negative”. For the same compound, the mutagenic call (Test System: AMES SALMONELLA TYPHIMURIUM, Strain/Indicator: TA98, Metabolic Activation: HAMSTER LIVER S-9, AROCLOR 1254 (10%), Method: PREINCUBATION) was “inactive; negative”, the mutagenic call (Test System: AMES SALMONELLA TYPHIMURIUM, Strain/Indicator: TA98, Metabolic Activation: NONE, Method: PREINCUBATION) was “inactive; negative” and the mutagenic call (Test System: AMES SALMONELLA TYPHIMURIUM, Strain/Indicator: TA98, Metabolic Activation: NONE, Method: STANDARD PLATE) was “inactive; negative”. For the same compound, the mutagenic call (Test System: AMES SALMONELLA TYPHIMURIUM, Strain/Indicator: TA98, Metabolic Activation: RAT LIVER S-9, AROCLOR 1254 (10%), Method: PREINCUBATION) was “inactive; negative”, the mutagenic call (Test System: AMES SALMONELLA TYPHIMURIUM, Strain/Indicator: TA98, Metabolic Activation: RAT, LIVER, S-9, AROCLOR 1254, Method: STANDARD PLATE) was “inactive; negative” and the mutagenic call (Test System: AMES SALMONELLA TYPHIMURIUM, Strain/Indicator: TA98, Metabolic Activation: S-9, Method: STANDARD PLATE) was “inactive; negative”. For the same compound, the mutagenic call (Test System: AMES SALMONELLA TYPHIMURIUM, Strain/Indicator: TA100, Metabolic Activation: HAMSTER LIVER S-9, AROCLOR 1254 (10%), Method: PREINCUBATION) was “inactive; negative”, the mutagenic call (Test System: AMES SALMONELLA TYPHIMURIUM, Strain/Indicator: TA100, Metabolic Activation: NONE, Method: PREINCUBATION) was “inactive; negative” and the mutagenic call (Test System: AMES SALMONELLA TYPHIMURIUM, Strain/Indicator: TA100, Metabolic Activation: NONE, Method: STANDARD PLATE) was “inactive; negative”. For the same compound, the mutagenic call (Test System: AMES SALMONELLA TYPHIMURIUM, Strain/Indicator: TA100, Metabolic Activation: RAT LIVER S-9 AROCLOR 1254 (10%), Method: PREINCUBATION) was “inactive; negative”, the mutagenic call (Test System: AMES SALMONELLA TYPHIMURIUM, Strain/Indicator: TA100, Metabolic Activation: RAT, LIVER, S-9, AROCLOR 1254, Method: STANDARD PLATE) was “inactive; negative” and the mutagenic call (Test System: AMES SALMONELLA TYPHIMURIUM, Strain/Indicator: TA100, Metabolic Activation: S-9, Method: STANDARD PLATE) was “inactive; negative”. For the same compound, the mutagenic call (Test System: AMES SALMONELLA TYPHIMURIUM, Strain/Indicator: TA102, Metabolic Activation: NONE, Method: STANDARD PLATE) was “inactive; negative”, the mutagenic call (Test System: AMES SALMONELLA TYPHIMURIUM, Strain/Indicator: TA102, Metabolic Activation: RAT LIVER S-9, PHENOBARBITAL AND 5,6-BENZOFLAVONE, Method: STANDARD PLATE) was “inactive; negative” and the mutagenic call (Test System: AMES SALMONELLA TYPHIMURIUM, Strain/Indicator: TA102, Metabolic Activation: RAT, LIVER, S-9, AROCLOR 1254, Method: STANDARD PLATE) was “inactive; negative”. For the same compound, the mutagenic call (Test System: AMES SALMONELLA TYPHIMURIUM, Strain/Indicator: TA102, Metabolic Activation: S-9, Method: STANDARD PLATE) was “inactive; negative”, the mutagenic call (Test System: AMES SALMONELLA TYPHIMURIUM, Strain/Indicator: TA1535, Metabolic Activation: HAMSTER LIVER S-9, AROCLOR 1254 (5%), Method: PREINCUBATION) was “inactive; negative” and the mutagenic call (Test System: AMES SALMONELLA TYPHIMURIUM, Strain/Indicator: TA1535, Metabolic Activation: HAMSTER LIVER S-9, AROCLOR 1254 (10%), Method: PREINCUBATION) was “inactive; negative”. For the same compound, the mutagenic call (Test System: AMES SALMONELLA TYPHIMURIUM, Strain/Indicator: TA1535, Metabolic Activation: NONE, Method: PREINCUBATION) was “active; positive”, the mutagenic call (Test System: AMES SALMONELLA TYPHIMURIUM, Strain/Indicator: TA1535, Metabolic Activation: NONE, Method: STANDARD PLATE) was “inactive; negative” and the mutagenic call (Test System: AMES SALMONELLA TYPHIMURIUM, Strain/Indicator: TA1535, Metabolic Activation: RAT LIVER S-9, AROCLOR 1254 (5%), Method: PREINCUBATION) was “inactive; negative”. The mutagenic call (Test System: AMES SALMONELLA TYPHIMURIUM, Strain/Indicator: TA1535, Metabolic Activation: RAT LIVER S-9, AROCLOR 1254 (10%), Method: PREINCUBATION) was “inactive; negative”, the mutagenic call (Test System: AMES SALMONELLA TYPHIMURIUM, Strain/Indicator: TA1535, Metabolic Activation: RAT, LIVER, S-9, AROCLOR 1254, Method: STANDARD PLATE) was “inactive; negative” and the mutagenic call (Test System: AMES SALMONELLA TYPHIMURIUM, Strain/Indicator: TA1537, Metabolic Activation: NONE, Method: STANDARD PLATE) was “inactive; negative”. For the same compound, the mutagenic call (Test System: AMES SALMONELLA TYPHIMURIUM, Strain/Indicator: TA1537, Metabolic Activation: RAT, LIVER, S-9, AROCLOR 1254, Method: STANDARD PLATE) was “inactive; negative”, the mutagenic call (Test System: AMES SALMONELLA TYPHIMURIUM, Strain/Indicator: TA1538, Metabolic Activation: NONE, Method: STANDARD PLATE) was “inactive; negative” and the mutagenic call (Test System: AMES SALMONELLA TYPHIMURIUM, Strain/Indicator: TA1538, Metabolic Activation: RAT, LIVER, S-9, AROCLOR 1254, Method: STANDARD PLATE) was “inactive; negative”. For the same compound, the mutagenic call (Test System: AMES SALMONELLA TYPHIMURIUM, Strain/Indicator: TA2638, Metabolic Activation: RAT LIVER S-9, PHENOBARBITAL AND 5,6-BENZOFLAVONE, Method: STANDARD PLATE) was “inactive; negative”, the mutagenic call (Test System: CHINESE HAMSTER OVARY, Strain/Indicator: CHO-K1-BH4 (HGPRT)/6-THIOGUANINE, Metabolic Activation: NONE, Method: SUSPENSION/PLATE) was “inactive; negative” and the mutagenic call (Test System: CHINESE HAMSTER OVARY, Strain/Indicator: CHO-K1-BH4 (HGPRT)/6-THIOGUANINE, Metabolic Activation: S-9, Method: SUSPENSION/PLATE) was “inactive; negative”. For the same compound, the mutagenic call (Test System: CHINESE HAMSTER OVARY, Strain/Indicator: CHO-K1-BH4 (HGPRT), Metabolic Activation: NONE, Method: SUSPENSION/PLATE) was “inactive; negative”, the mutagenic call (Test System: CHINESE HAMSTER OVARY, Strain/Indicator: CHO-K1-BH4 (HGPRT), Metabolic Activation: RAT, LIVER, S-9, AROCLOR, Method: SUSPENSION/PLATE) was “inactive; negative” and the mutagenic call (Test System: CHINESE HAMSTER V-79, Strain/Indicator: V-79 (HGPRT)/8-AZAGUANINE, Metabolic Activation: NONE, Method: REPLATING) was “inactive; negative”. The mutagenic call (Test System: CHINESE HAMSTER V-79, Strain/Indicator: V-79 (HGPRT)/8-AZAGUANINE, Metabolic Activation: RAT, LIVER, S-9, AROCLOR 1254, Method: REPLATING) was “active; positive”, the mutagenic call (Test System: CHINESE HAMSTER V-79, Strain/Indicator: V-79/6-THIOGUANINE, Metabolic Activation: NONE, Method: REPLATING) was “inactive; negative” and the mutagenic call (Test System: CHINESE HAMSTER V-79, Strain/Indicator: V-79/6-THIOGUANINE, Metabolic Activation: RAT, LIVER, S-9, PHENOBARBITAL AND 5,6-BENZOFLAVONE, Method: REPLATING) was “active; positive”. The mutagenic call (Test System: CHINESE HAMSTER V-79, Strain/Indicator: V-79/OUABAIN, Metabolic Activation: HAMSTER EMBRYO CELL-MEDIATED) was “inactive; negative”, the mutagenic call (Test System: CHINESE HAMSTER V-79, Strain/Indicator: V-79/OUABAIN, Metabolic Activation: NONE) was “inactive; negative” and the mutagenic call (Test System: CHINESE HAMSTER V-79, Strain/Indicator: V-79/OUABAIN, Metabolic Activation: RAT, LIVER, S-15, PHENOBARBITAL AND 5,6-BENZOFLAVONE) was “inactive; negative”. For the same compound, the mutagenic call (Test System: E. COLI, Strain/Indicator: WP2 (PKM101), Metabolic Activation: RAT LIVER S-9, PHENOBARBITAL AND 5,6-BENZOFLAVONE, Method: STANDARD PLATE) was “inactive; negative”, the mutagenic call (Test System: E. COLI, Strain/Indicator: WP2 UVRA (PKM101), Metabolic Activation: RAT LIVER S-9, PHENOBARBITAL AND 5,6-BENZOFLAVONE, Method: STANDARD PLATE) was “inactive; negative” and the mutagenic call (Test System: MOUSE LYMPHOMA, Strain/Indicator: L5178Y (TK+/-)/TRIFLUROTHYMIDINE, Metabolic Activation: NONE, Method: SUSPENSION/PLATE) was “inactive; negative”. The mutagenic call (Test System: MOUSE LYMPHOMA, Strain/Indicator: L5178Y (TK+/-)/TRIFLUROTHYMIDINE, Metabolic Activation: RAT LIVER S-9, AROCLOR 1254, Method: SUSPENSION/PLATE) was “inactive; negative”, the mutagenic call (Test System: MOUSE LYMPHOMA, Strain/Indicator: L5178Y (TK+/TK-), Metabolic Activation: NONE, Method: SUSPENSION/PLATE) was “inactive; negative” and the mutagenic call (Test System: MOUSE LYMPHOMA, Strain/Indicator: L5178Y (TK+/TK-), Metabolic Activation: RAT, LIVER, S-9, Method: SUSPENSION/PLATE) was “inactive; negative”. The mutagenic call (Test System: MOUSE LYMPHOMA, Strain/Indicator: L5178Y (TK+/TK-), Metabolic Activation: S-9, Method: SUSPENSION/PLATE) was “active; positive” and the mutagenic call (Test System: UDS RAT HEPATOCYTES, Strain/Indicator: THY INCORP, Metabolic Activation: NONE, Method: LIQUID SCINTILLATION COUNTING) was “active; positive”.

— PubChem BioAssay AID1259407 (Chemical Carcinogenesis Research Information System (CCRIS), 2018)
